In the experiment the target is LRRK2 (Homo sapiens, UniProt Q5S007). Put plainly: LRRK2 affinity (Ki). In kind it is binding. Conditions: LRRK2 affinity (micromolar), Table 1.

SMILES strings stand for the structures.

Sequence of LRRK2 (Q5S007 whole entry): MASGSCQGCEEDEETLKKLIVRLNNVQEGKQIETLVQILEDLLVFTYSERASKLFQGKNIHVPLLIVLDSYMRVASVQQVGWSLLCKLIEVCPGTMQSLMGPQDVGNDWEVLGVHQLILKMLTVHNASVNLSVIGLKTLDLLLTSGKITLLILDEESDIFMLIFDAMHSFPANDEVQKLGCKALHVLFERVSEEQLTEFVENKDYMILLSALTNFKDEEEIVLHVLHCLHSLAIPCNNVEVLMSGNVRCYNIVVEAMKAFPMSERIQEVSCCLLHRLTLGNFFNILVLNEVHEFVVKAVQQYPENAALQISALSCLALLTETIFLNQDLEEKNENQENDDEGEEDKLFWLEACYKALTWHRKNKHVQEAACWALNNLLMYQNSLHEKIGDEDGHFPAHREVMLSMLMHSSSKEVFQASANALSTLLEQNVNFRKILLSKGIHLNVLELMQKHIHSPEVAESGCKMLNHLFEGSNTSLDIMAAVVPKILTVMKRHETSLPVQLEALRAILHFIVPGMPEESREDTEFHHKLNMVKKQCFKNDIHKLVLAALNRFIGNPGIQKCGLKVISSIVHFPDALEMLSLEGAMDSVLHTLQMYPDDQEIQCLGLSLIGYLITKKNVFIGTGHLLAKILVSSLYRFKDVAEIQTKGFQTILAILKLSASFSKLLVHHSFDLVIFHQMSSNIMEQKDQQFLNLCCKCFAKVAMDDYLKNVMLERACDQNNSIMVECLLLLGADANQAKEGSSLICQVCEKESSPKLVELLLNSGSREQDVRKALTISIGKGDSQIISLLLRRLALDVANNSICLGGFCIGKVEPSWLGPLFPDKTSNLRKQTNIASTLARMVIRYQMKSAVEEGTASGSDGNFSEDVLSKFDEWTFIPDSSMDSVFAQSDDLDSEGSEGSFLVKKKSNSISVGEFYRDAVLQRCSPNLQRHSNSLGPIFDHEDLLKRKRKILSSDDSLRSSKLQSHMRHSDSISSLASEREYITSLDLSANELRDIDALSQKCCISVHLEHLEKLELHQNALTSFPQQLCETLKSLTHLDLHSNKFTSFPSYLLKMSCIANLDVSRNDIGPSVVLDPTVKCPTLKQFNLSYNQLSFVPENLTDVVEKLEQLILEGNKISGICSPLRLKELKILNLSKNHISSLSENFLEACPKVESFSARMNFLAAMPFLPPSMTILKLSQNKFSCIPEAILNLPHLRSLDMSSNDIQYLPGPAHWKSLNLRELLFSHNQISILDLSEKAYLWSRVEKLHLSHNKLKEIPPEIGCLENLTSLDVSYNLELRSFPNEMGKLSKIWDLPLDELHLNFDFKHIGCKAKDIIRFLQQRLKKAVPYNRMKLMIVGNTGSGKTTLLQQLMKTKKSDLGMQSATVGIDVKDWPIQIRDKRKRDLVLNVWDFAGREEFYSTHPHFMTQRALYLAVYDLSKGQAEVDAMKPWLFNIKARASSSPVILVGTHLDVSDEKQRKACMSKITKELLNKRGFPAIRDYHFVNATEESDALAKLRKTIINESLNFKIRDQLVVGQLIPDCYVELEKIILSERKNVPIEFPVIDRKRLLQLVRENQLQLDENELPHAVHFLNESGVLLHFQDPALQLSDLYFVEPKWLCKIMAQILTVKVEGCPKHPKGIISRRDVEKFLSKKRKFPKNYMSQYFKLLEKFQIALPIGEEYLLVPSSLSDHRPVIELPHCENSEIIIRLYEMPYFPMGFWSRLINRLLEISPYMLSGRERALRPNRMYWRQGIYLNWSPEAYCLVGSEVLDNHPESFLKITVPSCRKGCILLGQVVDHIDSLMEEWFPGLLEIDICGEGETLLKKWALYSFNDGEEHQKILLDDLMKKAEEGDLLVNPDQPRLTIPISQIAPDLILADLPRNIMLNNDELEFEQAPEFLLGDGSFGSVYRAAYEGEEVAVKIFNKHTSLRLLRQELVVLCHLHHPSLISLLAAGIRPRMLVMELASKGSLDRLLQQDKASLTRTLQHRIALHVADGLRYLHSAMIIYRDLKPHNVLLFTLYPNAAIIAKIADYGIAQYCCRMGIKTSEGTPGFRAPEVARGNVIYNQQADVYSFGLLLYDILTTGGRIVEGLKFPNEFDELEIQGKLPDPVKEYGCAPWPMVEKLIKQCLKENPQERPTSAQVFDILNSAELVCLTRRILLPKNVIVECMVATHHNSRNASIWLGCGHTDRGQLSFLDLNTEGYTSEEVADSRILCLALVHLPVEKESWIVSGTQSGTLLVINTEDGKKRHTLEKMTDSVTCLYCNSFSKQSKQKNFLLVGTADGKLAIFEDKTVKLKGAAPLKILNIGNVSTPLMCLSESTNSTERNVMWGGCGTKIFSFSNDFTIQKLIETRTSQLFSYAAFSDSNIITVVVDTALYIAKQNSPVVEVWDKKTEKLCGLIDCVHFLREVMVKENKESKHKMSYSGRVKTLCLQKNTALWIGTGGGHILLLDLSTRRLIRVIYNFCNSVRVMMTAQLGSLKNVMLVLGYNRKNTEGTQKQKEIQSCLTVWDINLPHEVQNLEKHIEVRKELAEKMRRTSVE

With `CNc1nc(Nc2cc(OC)c(C(=O)N(C)C)cc2OCF)ncc1C(F)(F)F` [Compound 19, 5-(fluoromethoxy)-2-methoxy-N,N-dimethyl-4-(4-(methylamino)-5-(trifluoromethyl)pyrimidin-2-ylamino)benzamide], the Ki is 4 nM.
To `CNc1nc(Nc2cnn(C)c2CF)ncc1C(F)(F)F` [Compound 34, N2-(5-(fluoromethyl)-1-methyl-1H-pyrazol-4-yl)-N4-methyl-5-(trifluoromethyl)pyrimidine-2,4-diamine] belongs 24 nM.

One may read the Ki as the dissociation constant of the complex between target and ligand, obtained from inhibition or displacement. Read a high Ki as weaker binding.
